This assay concerns the target T1, Recombinant human renin (Homo sapiens, UniProt P00797).
T1 construct: isolate the active form (residues 67-406); made in house; host or cells: FreeStyle 293-F cells (transient expression of pcDNA3.1(+)/hREN)
T1 sequence (P00797 67-406): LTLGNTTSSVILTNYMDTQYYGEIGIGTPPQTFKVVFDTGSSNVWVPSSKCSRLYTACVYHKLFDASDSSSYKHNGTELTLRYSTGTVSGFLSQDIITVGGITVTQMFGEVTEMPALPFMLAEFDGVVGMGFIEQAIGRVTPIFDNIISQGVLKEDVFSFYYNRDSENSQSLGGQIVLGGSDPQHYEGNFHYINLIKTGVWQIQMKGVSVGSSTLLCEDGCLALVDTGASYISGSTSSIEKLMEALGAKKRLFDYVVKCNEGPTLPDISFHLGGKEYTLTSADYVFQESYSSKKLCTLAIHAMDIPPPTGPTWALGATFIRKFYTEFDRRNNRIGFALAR
Description: In vitro enzymatic activity assay of renin inhibitors (fluorogenic peptide substrate). It counts as biochemical. Particulars: read-out: IC50 of Exemplified Compounds Against Renin. An outline of the steps:
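Enzyme: recombinant human renin, 3 nM final, 10 min compound pre-incubation at 37 °C; buffer 50 mM Hepes pH 7.4 with 0.1 mg/mL BSA or extra 2% BSA; 5% DMSO.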

Molecules are shown by their SMILES.

For the compound `COCCCn1c([C@@H]2CCCN(C(=O)C[C@H](N)Cc3ccc(-c4ccc(N5CCOCC5)nc4)cc3)C2)nc2ccccc21` [Compound 135, (R)-3-amino-1-((R)-3-(1-(3-methoxypropyl)-1H-benzo[d]imidazol-2-yl)piperidin-1-yl)-4-(4-(6-morpholinopyridin-3-yl)phenyl)butan-1-one], the IC50 (in general, the concentration at which inhibition is half-maximal) was under 100 nM.

Take `COCCCn1c([C@@H]2CCCN(C(=O)C[C@H](N)Cc3ccc(-c4ccncc4OC)cc3)C2)nc2ccccc21` [Compound 144, (R)-3-amino-1-((R)-3-(1-(3-methoxypropyl)-1H-benzo[d]imidazol-2-yl)piperidin-1-yl)-4-(4-(3-methoxypyridin-4-yl)phenyl)butan-1-one]: the IC50 was under 100 nM.

For the compound `COCCCn1c([C@@H]2CCCN(C(=O)C[C@H](N)Cc3ccc(Oc4ccccc4)cc3)C2)nc2ccccc21` [Compound 238, (R)-3-amino-1((R)-3-(1-(3-methoxypropyl)-1H-benzo[d]imidazol-2-yl)piperidin-1-yl)-4-(4-phenoxyphenyl)butan-1-one], the IC50 is under 100 nM.

In the case of `COCCCn1c([C@@H]2CCCN(C(=O)C[C@H](N)Cc3cccc(Cl)c3)C2)nc2ccccc21` [Compound 79, (R)-3-amino-4-(3-chlorophenyl)-1((R)-3-(1-(3-methoxypropyl)-1H-benzo[d]imidazol-2-yl)piperidin-1-yl)butan-1-one], the IC50 was 100 to 1000 nM.

In the case of `COCCCn1c([C@@H]2CCCN(C(=O)C[C@H](N)Cc3ccc(-c4c(C)n[nH]c4C)cc3)C2)nc2ccccc21` [Compound 137, (R)-3-amino-4-(4-(3,5-dimethyl-1H-pyrazol-4-yl)phenyl)-1-((R)-3-(1-(3-methoxypropyl)-1H-benzo[d]imidazol-2-yl)piperidin-1-yl)butan-1-one], the IC50 was under 100 nM.

For `COCCCn1c([C@@H]2CCCN(C(=O)C[C@H](N)Cc3ccc(-c4ccccc4Cl)cc3)C2)nc2ccccc21` [Compound 155, (R)-3-amino-4-(2′-chlorobiphenyl-4-yl)-1-((R)-3-(1-(3-methoxypropyl)-1H-benzo[d]imidazol-2-yl)piperidin-1-yl)butan-1-one], the IC50 is under 100 nM.

Turning to `C[C@@H](N)C(=O)N1CCCC(c2nc3ccccc3[nH]2)C1` (stereo partly drawn) [Compound 50, (2R)-1-(3-(1H-benzo[d]imidazol-2-yl)piperidin-1-yl)-2-aminopropan-1-one], the IC50 was over 1000 nM.

Take `COCCCn1c([C@@H]2CCCN(C(=O)[C@@H]3CN(C(=O)c4ccco4)C[C@H]3N)C2)nc2ccccc21` [Compound 420, ((3R,4S)-4-amino-1-(furan-2-carbonyl)pyrrolidin-3-yl)((R)-3-(1-(3-methoxypropyl)-1H-benzo[d]imidazol-2-yl)piperidin-1-yl)methanone]: the IC50 is over 1000 nM.

`COCCCn1c([C@@H]2CCCN(C(=O)[C@@H]3CN(C(=O)N4CCCC4)C[C@H]3N)C2)nc2ccccc21` [Compound 417, ((3R,4S)-4-amino-1-(pyrrolidine-1-carbonyl)pyrrolidin-3-yl)((R)-3-(1-(3-methoxypropyl)-1H-benzo[d]imidazol-2-yl)piperidin-1-yl)methanone]: the IC50 was over 1000 nM.

On to `N[C@@H](CC(=O)N1CCCC(c2nc3ccccc3[nH]2)C1)c1cccc(Br)c1` (stereo partly drawn) [Compound 41, (3S)-1-(3-(1H-benzo[d]imidazol-2-yl)piperidin-1-yl)-3-amino-3-(3-bromophenyl)propan-1-one], for which the IC50 is over 1000 nM.

As for `COCCCn1c([C@@H]2CCCN(C(=O)[C@@H]3CN(C(=O)NC4CCCC4)C[C@H]3N)C2)nc2ccccc21` [Compound 399, (3S,4R)-3-amino-N-cyclopentyl-4-((R)-3-(1-(3-methoxypropyl)-1H-benzo[d]imidazol-2-yl)piperidine-1-carbonyl)pyrrolidine-1-carboxamide], the IC50 was over 1000 nM.

Turning to `COCCCn1c([C@@H]2CCCN(C(=O)C[C@H](N)CNC(=O)c3c(Cl)cccc3Cl)C2)nc2ccccc21` [Compound 289, N-((S)-2-amino-4-((R)-3-(1-(3-methoxypropyl)-1H-benzo[d]imidazol-2-yl)piperidin-1-yl)-4-oxobutyl)-2,6-dichlorobenzamide], the IC50 was 100 to 1000 nM.

For the compound `N[C@@H](Cc1ccccn1)C(=O)N1CCCC(c2nc3ccccc3[nH]2)C1` (stereo partly drawn) [Compound 62, (2S)-1-(3-(1H-benzo[d]imidazol-2-yl)piperidin-1-yl)-2-amino-3-(pyridin-2-yl)propan-1-one], the IC50 is over 1000 nM.

For `COCCCn1c([C@@H]2CCCN(C(=O)C[C@H](N)Cc3ccc(-c4ccc(NC(=O)N(C)C)cc4)cc3)C2)nc2ccccc21` [Compound 174, 3-(4′-((R)-2-amino-4-((R)-3-(1-(3-methoxypropyl)-1H-benzo[d]imidazol-2-yl)piperidin-1-yl)-4-oxobutyl)biphenyl-4-yl)-1,1-dimethylurea], the IC50 is under 100 nM.

On to `COCCCn1c([C@@H]2CCCN(C(=O)C[C@H](N)CNC(=O)c3ccc4c(c3)CCO4)C2)nc2ccccc21` [Compound 271, N-((S)-2-amino-4-((R)-3-(1-(3-methoxypropyl)-1H-benzo[d]imidazol-2-yl)piperidin-1-yl)-4-oxobutyl)-2,3-dihydrobenzofuran-5-carboxamide], for which the IC50 fell in the range of 100 to 1000 nM.

With `COCCCn1c([C@@H]2CCCN(C(=O)[C@@H]3CN(S(=O)(=O)c4cccc(Cl)c4)C[C@H]3N)C2)nc2ccccc21` [Compound 351, ((3R,4S)-4-amino-1-(3-chlorophenylsulfonyl)pyrrolidin-3-yl)((R)-3-(1-(3-methoxypropyl)-1H-benzo[d]imidazol-2-yl)piperidin-1-yl)methanone], the IC50 fell in the range of 100 to 1000 nM.

Take `COCCCn1c([C@@H]2CCCN(C(=O)[C@@H]3CN(C(=O)c4ccccc4)C[C@H]3N)C2)nc2ccccc21` [Compound 385, ((3R,4S)-4-amino-1-benzoylpyrrolidin-3-yl)((R)-3-(1-(3-methoxypropyl)-1H-benzo[d]imidazol-2-yl)piperidin-1-yl)methanone]: the IC50 was over 1000 nM.

For `COCCCn1c([C@@H]2CCCN(C(=O)C[C@H](N)Cc3ccc(-c4cc[nH]c4)cc3)C2)nc2ccccc21` [Compound 152, (R)-4-(4-(1H-pyrrol-3-yl)phenyl)-3-amino-1-((R)-3-(1-(3-methoxypropyl)-1H-benzo[d]imidazol-2-yl)piperidin-1-yl)butan-1-one], the IC50 is under 100 nM.

`COCCCn1c([C@@H]2CCCN(C(=O)C[C@H](N)CNC(=O)c3ccc(-c4ccccc4)o3)C2)nc2ccccc21` [Compound 251, N-((S)-2-amino-4-((R)-3-(1-(3-methoxypropyl)-1H-benzo[d]imidazol-2-yl)piperidin-1-yl)-4-oxobutyl)-5-phenylfuran-2-carboxamide]: the IC50 was under 100 nM.

`COCCCn1c([C@@H]2CCCN(C(=O)C[C@H](N)Cc3ccc(Br)cc3)C2)nc2ccccc21` [Compound 91, (R)-3-amino-4-(4-bromophenyl)-1((R)-3-(1-(3-methoxypropyl)-1H-benzo[d]imidazol-2-yl)piperidin-1-yl)butan-1-one]: the IC50 lay within 100 to 1000 nM.

As to `CC(=O)NCCn1c([C@@H]2CCCN(C(=O)C[C@H](N)Cc3ccc(-c4ccc5c(c4)OCCO5)cc3)C2)nc2ccccc21` [Compound 449, N-(2-(2-((R)-1-((R)-3-amino-4-(4-(2,3-dihydrobenzo[b][1,4]dioxin-6-yl)phenyl)butanoyl)piperidin-3-yl)-1H-benzo[d]imidazol-1-yl)ethyl)acetamide], the IC50 lay in the range of 100 to 1000 nM.

Consider `S=C(Nc1cccc2nsnc12)N1CCCC(c2nc3ccccc3[nH]2)C1` (stereo not drawn) [Compound 18, N-(benzo[c][1,2,5]thiadiazol-4-yl)-3-(1H-benzo[d]imidazol-2-yl)piperidine-1-carboxthioamide], for which the IC50 was over 1000 nM.

For `COCCCn1c([C@@H]2CCCN(C(=O)[C@@H]3CN(S(=O)(=O)c4cccc(Oc5ccccc5)c4)C[C@H]3N)C2)nc2ccccc21` [Compound 368, ((3R,4S)-4-amino-1-(3-phenoxyphenylsulfonyl)pyrrolidin-3-y1)((R)-3-(1-(3-methoxypropyl)-1H-benzo[d]imidazol-2-yl)piperidin-1-yl)methanone], the IC50 lay in the range of 100 to 1000 nM.

On to `COCCCn1c([C@@H]2CCCN(C(=O)C[C@H](N)CNC(=O)C3CCCCC3)C2)nc2ccccc21` [Compound 326, N-((S)-2-amino-4-((R)-3-(1-(3-methoxypropyl)-1H-benzo[d]imidazol-2-yl)piperidin-1-yl)-4-oxobutyl)cyclohexanecarboxamide], for which the IC50 was over 1000 nM.

For `COCCCn1c([C@@H]2CCCN(C(=O)C[C@H](N)Cc3ccc(-c4csc(C(C)C)n4)cc3)C2)nc2ccccc21` [Compound 202, (R)-3-amino-4-(4-(2-isopropylthiazol-4-yl)phenyl)-1-((R)-3-(1-(3-methoxypropyl)-1H-benzo[d]imidazol-2-yl)piperidin-1-yl)butan-1-one], the IC50 is under 100 nM.

`COCCCn1c([C@@H]2CCCN(C(=O)[C@@H]3CN(S(=O)(=O)c4cc(C)c(Cl)cc4C)C[C@H]3N)C2)nc2ccccc21` [Compound 344, ((3R,4S)-4-amino-1-(4-chloro-2,5-dimethylphenylsulfonyl)pyrrolidin-3-yl)((R)-3-(1-(3-methoxypropyl)-1H-benzo[d]imidazol-2-yl)piperidin-1-yl)methanone]: the IC50 was in the range of 100 to 1000 nM.

Take `COCCCn1c([C@@H]2CCCN(C(=O)C[C@H](N)Cc3ccc(-c4ccc(O)nc4)cc3)C2)nc2c(F)cccc21` [Compound 451, (R)-3-amino-1-((R)-3-(4-fluoro-1-(3-methoxypropyl)-1H-benzo[d]imidazol-2-yl)piperidin-1-yl)-4-(4-(6-hydroxypyridin-3-yl)phenyl)butan-1-one]: the IC50 was under 100 nM.
